“And” between values parts separate entries of the source, which are not always exact repeats. Equal entries are not always repeated.

In assay [1] the test system is NK cells. In words: NK cell activity, standard 51Cr release assay with YAC-1 target cells. Details: NK activity (%): concentration or dose not given beside the values. The assay is classed as in vivo, BALB/c mice. The note with it: for NK activity (%): % specific lysis, E:T 200:1. As for the experimental part:
NK cell activity was determined by using a standard NK assay (Coligan, J. E. et al. 1993. “In Vitro Assays for mouse lymphocyte function” Chapter 3, Current Protocol in Imnunology, John Wiley & Sons, New York) using YAC-1 cells (ATCC #TIB-160) as target cells. These cells were washed twice with HBSS, counted, and suspended at a concentration of 5×10^6 cells/ml. About 5×10^6 cells were labeled with 100 μCi of ^51Cr. Cells were incubated 90 minutes at 37° C. in a 5% CO2 humidified incubator and then washed three times with RPMI, counted, and suspended at a concentration of 1×10^5 cells/ml in complete RPMI. About 100 μl of target cells (˜1×10^4 cells) was put into each well of a round-bottom 96 wells plate.
Four dilutions of splenocytes were prepared: 2×10^7 cells/ml, 1×10^7 cells/ml, 0.5×10^7 cells/ml, and 0.25×10^7 cells/ml. A volume of 100 μl of each splenocyte dilution was plated in triplicate with the target cells for a final effector:target (E:T) ratio of 200:1, 100:1, 50:1 and 25:1.
A maximal control release was prepared in triplicate on each plate by adding 100 μl of 5% Triton X-100 solution instead of effector cells. Spontaneous release was prepared in triplicate on each plate by adding 100 μl of complete RPMI instead of effector cells. Plates were centrifuged and incubated 4 hours at 37° C. in a 5% CO2 humidified incubator. After incubation, the supernatants were collected and the ^51Cr release was determined using a gamma counter. The average cpm count was calculated for each triplicate. The average cpm count for the total and spontaneous release was also calculated. The percentage (%) of specific lysis is calculated using the following formula:
Where, ER=Experimental release of ^51Cr • TR=Total release of ^51Cr • SR=Spontaneous release of ^51Cr
The % of specific lysis for every ratio (200:1, 100:1, 50:1 and 25:1) was calculated. A graphic representation of the results is done: specific lysis % versus the ratio to verify the linearity. For BALB/c mice strains which usually show low NK activity, specific lysis corresponding to an E:T ratio of 200:1 is used to represent the data for each animal. The mean NK activity is then calculated for each control and treated group. Student's T test was performed between the control group and the treated group. The p value was calculated for statistical significance.
In this assay, the effect on the NK activity of feeding Balb/c mice with compound CPDS for short term (6 days) and longer term (30 days) was evaluated. The NK cells are a lymphocyte subset with non specific cytotoxicity activity. Results are presented as the % of specific lysis of target cells for a ratio of 200:1 (Table 8 and FIG. 2). Balb/c mice normally show low NK activity which justifies the choice of the 200:1 ratio for the comparison between groups.

Assay [2] has as its system feline immunodeficiency virus (FIV). In words: CPDS in an FIV-infected cat (Example 8). The assay is classed as in vivo. How it is done:
A cat infected with feline immunodeficiency virus (FIV) was given 140 mg CPDS each morning. The CPDS was mixed with the cat's chow (food). The 140 mg CDPS dosage regimen was continued for 2 weeks. At this time, the cat's overall conditions (thin facial hair, dull eyes, excorations of the skin, appetite, general behavior) improved. After the 2 week timepoint, the dosage regimen was increased to 140 mg CPDS every morning and night (280 mg CPDS daily), mixed in the cat chow. […] The cat's eyes were bright, facial hair was thick, appearance of hair was shiny, and the cat regained its appetite and gained 300 g in weight.

The test system is the same in assay [3]. Kind of assay: CPDS in an FIV-positive cat with FIDS symptoms (Example 10). It is filed as in vivo. The source says:
A very ill, young, spayed male cat ws presented with symptoms of feline immunodeficiency syndrome (FIDS). He had fever, diarrhea, and his glands were swollen. His coat was dull and the cat was listless.
His blood tested positive for feline immunodeficiency syndrome (FIV), as determined by ELISA testing with feline immunodeficiency virus antibody from Indexx Laboratories (Westbrook, Me.). The cat's weight upon presentation was 9.5 lbs.
Treatment of the cat with CPDS commenced the same day with a daily dose of 280 mg CPDS in the cat's diet. The regimen was continued for 30 days. […] The hair on the cat's muzzle and back was still thin. CPDS treatment was continued at 140 mg/day for another 60 days. […] His coat was rich and shiny, his eyes became bright, and his behavior was normal for a spayed male cat. The cat's weight after 60 days of treatment was 10.2 lbs, a gain of about 300 grams.

Where [4] appears, read: FIV-positive cat, end of thirty days at 280 mg CPDS daily.

Consider `O=C(O)c1ccc(SSc2ccc(C(=O)O)cn2)nc1` [CPDS, 6,6′-dithiodinicotinic acid], for which the “NK activity, effect of CPDS diet” value in assay [1] (6 days, vs control) is given as “No significant effect”. Also, the “NK activity, variation” value in assay [1] (Group 2, 30 days on CPDS diet vs Group 1) was 24.7%; in assay [1] (Group 6, 6 days on CPDS diet vs group 5), −13.1%. Further, the “NK activity (%)” value in assay [1] (Group 2, 30 days on CPDS diet, Mean ± S.D.) is 6.8 ± 1.4%; in assay [1] (Group 2, 30 days on CPDS diet, individual mice), 8.7% and 7.9% and 5.0% and 6.9% and 6.3% and 5.6% (2×) and 8.2%; in assay [1] (Group 6, 6 days on CPDS diet, Mean ± S.D.) it was 7.9 ± 2.0%; in assay [1] (Group 6, 6 days on CPDS diet, individual mice), 10.2% and 7.0% and 6.6%. The “Cat's overall conditions (facial hair, eyes, skin, appetite, general behavior)” value in assay [2] (FIV-infected cat, 140 mg CPDS each morning in chow for 2 weeks) is listed as “improved”. The “Physical condition, appearance and behavior” value in assay [2] (FIV-infected cat, 280 mg CPDS daily for a total of 59 days) is “improved physical condition, improved overall physical appearance, and improved behavior”. The “Weight gained by the cat” value in assay [2] (FIV-infected cat, after 30 days) was determined as 300 g. Besides, the “Cat's overall conditions” value in assay [2] (FIV-infected cat, after 30 days, 280 mg CPDS daily after week 2) is reported as “overall conditions had improved”. In addition, in assay [2] (after treatment for 100 days and a year and half after treatment), the “Health of the cat at follow-up” value is “appeared entirely healthy”. In assay [3] (FIV-positive cat, 280 mg CPDS daily in diet, after a few days), the “Cat's health” value is on record as “showed improvement”. In assay [3] (setting [4]), the “Symptoms (fever, diarrhea, swollen glands)” value is “fever had subsided, the diarrhea was gone, its glands were no longer swollen”. Further, the “Test for the FIDS antibody” value in assay [3] (setting [4]) is listed as “still tested positive”. The “Overall state of the cat” value in assay [3] (after 30 days at 280 mg/day and another 60 days at 140 mg/day) is “appeared to be healed”. The “Weight gain of the cat” value in assay [3] (after 60 days of treatment vs presentation) is reported as “about 300 grams”. Besides, the “Cat's weight after treatment” value in assay [3] (after 60 days of treatment, 9.5 lbs upon presentation) is recorded as 10.2 lbs.

(Values after patent publication US8163776B2, “Method of immunomodulation using thione-forming disulfides” (Grassetti family Trust, priority 2001, dated 2012).)
